Data from ChEMBL document CHEMBL1201862, “PubChem BioAssay data set” (2004).
Activity calls are given as the source filed them.

Experiments:
[1] = microbe, parasite or virus in culture; assay type: functional; settings: Mycobacterium tuberculosis
[2] = target: Nuclear receptor subfamily 5 group A member 2 (Homo sapiens, UniProt O00482); assay type: functional, cell-based;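 further: HEK293T cells transfected with LRH-1 and a StAR promoter luciferase reporter; potency for inhibitors that lower LRH-1 driven reporter light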
Sequence of Nuclear receptor subfamily 5 group A member 2 (O00482 whole entry): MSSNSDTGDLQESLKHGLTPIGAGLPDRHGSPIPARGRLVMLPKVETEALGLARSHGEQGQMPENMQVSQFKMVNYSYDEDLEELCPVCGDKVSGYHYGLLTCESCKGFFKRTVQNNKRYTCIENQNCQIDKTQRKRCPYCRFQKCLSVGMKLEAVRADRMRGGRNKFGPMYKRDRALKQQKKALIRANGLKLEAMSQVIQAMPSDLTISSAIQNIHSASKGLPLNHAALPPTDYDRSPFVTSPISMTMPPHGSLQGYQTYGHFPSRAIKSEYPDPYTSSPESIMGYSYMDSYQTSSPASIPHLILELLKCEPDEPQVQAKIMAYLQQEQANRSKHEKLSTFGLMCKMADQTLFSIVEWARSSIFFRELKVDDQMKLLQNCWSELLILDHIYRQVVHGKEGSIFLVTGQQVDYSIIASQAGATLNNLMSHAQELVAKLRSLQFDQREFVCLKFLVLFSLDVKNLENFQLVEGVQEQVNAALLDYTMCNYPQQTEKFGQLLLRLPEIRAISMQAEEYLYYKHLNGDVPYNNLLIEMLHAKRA

Steroidogenic factor 1 = Steroidogenic factor 1 (Homo sapiens, UniProt Q13285); assay: Counterscreen for inverse agonists of the liver receptor homolog-1 (LRH-1; NR5A2): Luminescence-based cell-based high throughput dose response assay to identify inverse agonists of the Steroidogenic Factor 1 Nuclear Receptor (SF1; NR5A1).; assay type: functional
Sequence of Steroidogenic factor 1 (Q13285 whole entry): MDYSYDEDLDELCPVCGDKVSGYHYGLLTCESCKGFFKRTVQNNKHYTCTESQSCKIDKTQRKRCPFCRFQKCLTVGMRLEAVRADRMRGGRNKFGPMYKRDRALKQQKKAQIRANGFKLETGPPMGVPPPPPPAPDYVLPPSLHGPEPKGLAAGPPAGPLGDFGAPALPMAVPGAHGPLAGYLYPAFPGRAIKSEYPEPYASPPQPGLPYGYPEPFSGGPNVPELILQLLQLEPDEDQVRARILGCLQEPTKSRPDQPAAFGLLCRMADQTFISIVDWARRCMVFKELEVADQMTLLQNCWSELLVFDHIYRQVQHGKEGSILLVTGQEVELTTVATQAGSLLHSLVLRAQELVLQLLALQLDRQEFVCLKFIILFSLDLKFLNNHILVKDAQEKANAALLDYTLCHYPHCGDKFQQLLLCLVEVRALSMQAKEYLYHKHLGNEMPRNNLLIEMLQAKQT

[3] = nonselective StAR promoter luciferase inhibitors – cell-based, luminescence, luciferase reporter, counter-screen for LRH-1 inverse agonist project, dose response (AID 651969); assay type: functional
[4] = target: T1, DNA repair and recombination protein RAD54-like (Homo sapiens, UniProt Q92698); assay: RAD54 Holliday junction migration blockers – biochemical, fluorescence, cherry-picked samples, dose series, confirmation (AID 651657); assay type: functional
T1 sequence (Q92698 whole entry): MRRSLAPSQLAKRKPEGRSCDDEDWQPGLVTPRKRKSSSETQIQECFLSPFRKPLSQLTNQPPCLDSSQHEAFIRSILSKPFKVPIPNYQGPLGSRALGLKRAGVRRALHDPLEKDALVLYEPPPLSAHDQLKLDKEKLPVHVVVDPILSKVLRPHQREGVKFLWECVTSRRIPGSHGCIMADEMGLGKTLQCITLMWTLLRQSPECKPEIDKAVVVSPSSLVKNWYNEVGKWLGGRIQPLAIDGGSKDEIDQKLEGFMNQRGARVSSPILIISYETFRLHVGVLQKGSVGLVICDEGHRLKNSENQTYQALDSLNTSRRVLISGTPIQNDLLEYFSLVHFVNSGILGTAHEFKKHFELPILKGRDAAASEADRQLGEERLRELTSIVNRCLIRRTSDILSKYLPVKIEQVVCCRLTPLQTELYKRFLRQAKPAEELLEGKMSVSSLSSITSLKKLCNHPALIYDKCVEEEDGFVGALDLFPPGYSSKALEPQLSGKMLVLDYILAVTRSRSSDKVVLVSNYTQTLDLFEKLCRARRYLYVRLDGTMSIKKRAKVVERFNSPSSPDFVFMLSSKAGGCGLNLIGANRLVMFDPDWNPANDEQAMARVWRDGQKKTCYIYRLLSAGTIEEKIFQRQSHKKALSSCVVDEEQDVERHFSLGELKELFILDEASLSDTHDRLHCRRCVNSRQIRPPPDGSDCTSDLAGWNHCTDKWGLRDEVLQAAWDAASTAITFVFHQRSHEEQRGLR

[5] = target: T2, Corticotropin-releasing factor receptor 2/Corticotropin-releasing factor-binding protein (Homo sapiens, UniProt P24387+Q13324); assay: Dose Response confirmation of uHTS hits for small molecule antagonists of the CRF-binding protein and CRF-R2 receptor complex.; assay type: functional; settings: read-out: IC50_Mean
T2 sequence (Q13324 whole entry): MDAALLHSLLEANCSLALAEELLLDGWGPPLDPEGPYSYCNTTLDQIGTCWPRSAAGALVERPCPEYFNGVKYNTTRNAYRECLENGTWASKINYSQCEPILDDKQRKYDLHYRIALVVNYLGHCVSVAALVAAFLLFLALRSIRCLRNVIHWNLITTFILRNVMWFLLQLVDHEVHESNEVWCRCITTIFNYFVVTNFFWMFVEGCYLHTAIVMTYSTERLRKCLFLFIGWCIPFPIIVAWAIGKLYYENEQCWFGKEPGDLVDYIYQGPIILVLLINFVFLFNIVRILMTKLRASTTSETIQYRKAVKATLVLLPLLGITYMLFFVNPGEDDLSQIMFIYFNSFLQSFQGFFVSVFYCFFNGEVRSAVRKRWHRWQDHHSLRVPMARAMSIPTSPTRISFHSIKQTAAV
T2 sequence (P24387 whole entry): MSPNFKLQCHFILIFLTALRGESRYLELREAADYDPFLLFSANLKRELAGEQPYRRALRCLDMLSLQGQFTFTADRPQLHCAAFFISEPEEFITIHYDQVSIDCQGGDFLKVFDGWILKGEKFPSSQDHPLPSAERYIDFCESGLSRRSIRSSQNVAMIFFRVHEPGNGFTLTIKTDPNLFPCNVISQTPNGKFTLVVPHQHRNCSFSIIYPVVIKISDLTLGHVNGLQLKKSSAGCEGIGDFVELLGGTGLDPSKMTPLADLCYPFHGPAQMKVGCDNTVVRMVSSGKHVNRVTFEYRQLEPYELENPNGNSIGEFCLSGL

[6] = target: T2, Corticotropin-releasing factor receptor 2/Corticotropin-releasing factor-binding protein; assay: activators of CRF receptor 2 with binding protein – uHTS hits, confirmation (AID 602473); assay type: functional; settings: read-out: EC50_Mean
[7] = blockers of CRF-binding protein–CRF-R2 complex – cell-based, uHTS hits, 384-well, dose response (AID 651639); assay type: functional, Homo sapiens; settings: read-out: IC50_Mean
[8] = Luminescence Cell-Based Dose Response HTS to Identify Inhibitors of 5'UTR Stem-Loop Driven Prion Protein mRNA Translation in H4 Neuroglioblastoma Cells. [Related pubchem assays: 1827 (Project Summary), 1813 (Primary HTS)]; assay type: functional
[9] = alpha-synuclein stem-loop luciferase translation blockers – H4 neuroglioma cells, luminescence, confirmation (AID 1988); assay type: functional, cell-based
[10] = HEK-293T viability loss after treatment – luminescence, T-cell screen hits, cytotoxicity control for TCR NF-kB inhibitor project, dose response (AID 489026); assay type: functional, cell-based;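 further: cells exposed to compound about 14 hours before the viability readout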
Insulin-degrading enzyme [11] = target: T3, Insulin-degrading enzyme (Homo sapiens, UniProt P14735); assay: recombinant IDE activation, cell-free – biochemical, fluorescence polarization, counter-screen for IDE activator project, dose response (AID 588681)
T3 sequence (P14735 whole entry): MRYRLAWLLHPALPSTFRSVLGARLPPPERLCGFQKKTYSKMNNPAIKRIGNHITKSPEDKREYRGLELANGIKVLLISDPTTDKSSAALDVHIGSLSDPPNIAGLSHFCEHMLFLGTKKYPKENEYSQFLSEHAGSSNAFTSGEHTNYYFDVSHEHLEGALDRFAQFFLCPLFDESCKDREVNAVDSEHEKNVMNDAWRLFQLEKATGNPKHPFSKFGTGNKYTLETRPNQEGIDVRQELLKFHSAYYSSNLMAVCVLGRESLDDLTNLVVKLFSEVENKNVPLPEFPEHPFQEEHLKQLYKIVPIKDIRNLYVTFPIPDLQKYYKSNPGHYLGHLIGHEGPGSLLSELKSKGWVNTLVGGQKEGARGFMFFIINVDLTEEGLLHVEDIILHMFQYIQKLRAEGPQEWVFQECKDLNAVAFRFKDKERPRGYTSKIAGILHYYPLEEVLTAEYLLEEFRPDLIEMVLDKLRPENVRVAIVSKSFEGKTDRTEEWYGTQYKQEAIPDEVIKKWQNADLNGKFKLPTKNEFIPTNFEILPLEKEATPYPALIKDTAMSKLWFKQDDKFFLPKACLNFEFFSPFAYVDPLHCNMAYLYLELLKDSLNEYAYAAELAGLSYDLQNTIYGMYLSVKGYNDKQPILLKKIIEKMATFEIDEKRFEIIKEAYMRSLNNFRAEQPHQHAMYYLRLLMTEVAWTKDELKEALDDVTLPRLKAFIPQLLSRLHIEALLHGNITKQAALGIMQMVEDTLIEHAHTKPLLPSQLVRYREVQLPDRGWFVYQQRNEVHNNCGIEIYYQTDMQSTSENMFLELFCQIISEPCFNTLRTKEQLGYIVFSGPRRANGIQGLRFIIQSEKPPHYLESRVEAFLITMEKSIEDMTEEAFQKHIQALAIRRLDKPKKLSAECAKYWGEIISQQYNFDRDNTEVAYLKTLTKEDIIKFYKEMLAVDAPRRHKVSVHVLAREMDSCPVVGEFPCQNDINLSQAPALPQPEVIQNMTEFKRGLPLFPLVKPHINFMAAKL

Insulin-degrading enzyme [12] = target: T3, Insulin-degrading enzyme; assay: cellular IDE activation of Abeta substrate cleavage – fluorescence polarization, HEK cells, dose response (AID 588439); assay type: functional, cell-based
HEK293 [13] = assay: membrane integrity loss in HEK cells – cell-based, fluorescence, cytotoxicity control for IDE activator project, dose response (AID 588440); assay type: functional; settings: Homo sapiens;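 further: cytotoxicity by LDH release measuring loss of membrane integrity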
HEK293 [14] = assay: optical interference in Abeta FP readout, dose response, artefact control for IDE activator project, biochemical, fluorescence polarization (AID 588442); assay type: functional, cell-based; settings: Homo sapiens
[15] = target: Heat shock protein HSP 90-alpha (Homo sapiens, UniProt P07900); assay type: functional, organism-based
[16] = target: T4, DNA repair protein RAD52 homolog (Homo sapiens, UniProt P43351); assay type: functional, biochemical
T4 sequence (P43351 whole entry): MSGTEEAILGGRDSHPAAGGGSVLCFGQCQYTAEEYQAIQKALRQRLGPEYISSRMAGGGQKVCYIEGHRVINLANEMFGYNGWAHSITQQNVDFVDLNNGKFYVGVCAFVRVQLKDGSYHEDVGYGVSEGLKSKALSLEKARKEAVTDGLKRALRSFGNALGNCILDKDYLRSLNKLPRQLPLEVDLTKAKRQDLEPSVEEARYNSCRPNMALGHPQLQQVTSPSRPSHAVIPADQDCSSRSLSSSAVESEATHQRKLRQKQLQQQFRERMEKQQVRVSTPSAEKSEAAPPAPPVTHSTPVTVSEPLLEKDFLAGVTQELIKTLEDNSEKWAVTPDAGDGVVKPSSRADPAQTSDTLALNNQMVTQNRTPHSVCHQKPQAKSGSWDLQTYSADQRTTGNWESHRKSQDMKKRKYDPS

[17] = target: T5, Sentrin-specific protease 8 (Homo sapiens, UniProt Q96LD8); assay type: functional
T5 sequence (Q96LD8 whole entry): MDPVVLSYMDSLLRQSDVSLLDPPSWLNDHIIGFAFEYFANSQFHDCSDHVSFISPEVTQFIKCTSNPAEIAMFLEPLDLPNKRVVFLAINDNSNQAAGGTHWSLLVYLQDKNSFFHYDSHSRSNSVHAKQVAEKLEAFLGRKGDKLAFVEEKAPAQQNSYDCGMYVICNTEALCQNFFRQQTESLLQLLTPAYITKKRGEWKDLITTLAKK

[18] = target: T5, Sentrin-specific protease 8; assay type: functional; remark: listed apart in the source
[19] = intracellular Trypanosoma cruzi inhibitors in host cells – cell-based, plate reader, cherry-pick samples, set 3, dose response (AID 651818); assay type: functional;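 further: compounds incubated with infected cells for about four days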

COc1ccccc1NC(=O)c1ccc(NC(=O)CSc2nnnn2C)cc1
CC50 [1]: > 40 µM (active) | IC50 [2]: 0.437 µM (active) | IC50 (Steroidogenic factor 1): 0.77 µM (active) | IC50 [3]: 35.9 µM (inactive)

CN(C)CCCNc1nc(-c2ccc(Cl)cc2)nc2ccccc12
AC50 [4]: 22.5 µM (active)

O=C(c1ccco1)N1N=C(c2cccs2)CC1c1ccccc1O (centres undefined)
IC50 [5]: 6.11 µM (active) | EC50 [6]: > 53 µM (inactive) | IC50 [7]: 12.8 µM (active)

COc1cc(NC(=O)N2CCNC2=O)cc(C(=O)Nc2cccc(C(F)(F)F)c2)c1
EC50 [8]: 9.79 µM (active) | EC50 [9]: 6.31 µM (active) | IC50 [10]: > 80 µM (inactive) | EC50 (Insulin-degrading enzyme [11]): > 54.7 µM (inactive) | EC50 (Insulin-degrading enzyme [12]): > 54.7 µM (inactive) | IC50 (HEK293 [13]): > 89.2 µM (inactive) | EC50 (HEK293 [14]): > 54.7 µM (inactive)

Cc1ccc(O)c(NC(=S)NC(=O)COc2ccc(Br)cc2)c1
EC50 (Insulin-degrading enzyme [11]): > 54.7 µM (inactive) | EC50 (Insulin-degrading enzyme [12]): > 54.7 µM (inactive) | IC50 (HEK293 [13]): 10.7 µM (inactive) | EC50 (HEK293 [14]): > 55.9 µM (inactive) | EC50 [6]: 7 µM (active)

COc1cc2nc3c(O)n(CCN(C(C)C)C(C)C)cnc-3c2cc1OC
AC50 [4]: 47.7 µM (active)

O=C(c1ccc([N+](=O)[O-])cc1)N(Cc1ccccc1)Cc1ccccc1
IC50 [5]: 8.56 µM (active) | EC50 [6]: > 53 µM (inactive) | IC50 [7]: > 20 µM (inactive)

COc1cc(OC)cc(C(=O)N[C@H](C(=O)OCC(=O)Nc2ccc3c(c2)OCO3)C(C)C)c1
IC50 [2]: 4.71 µM (active) | IC50 (Steroidogenic factor 1): 5.72 µM (active) | IC50 [3]: 35.9 µM (inactive)

CCCCCCCCCCCCCCCC[n+]1ccccc1
AC50 [15]: 2.73 µM (active) | AC50 [16]: 5.71 µM (active)

COc1ccc(CCNC(=O)COC(=O)Cc2ccccc2[N+](=O)[O-])cc1
IC50 [2]: 35.9 µM (inactive) | IC50 (Steroidogenic factor 1): 2.36 µM (active) | IC50 [3]: 35.9 µM (inactive)

O=C(Nc1c(-c2ccccc2)n[nH]c1O)c1cccc(C(F)(F)F)c1
IC50 [17]: 87.3 µM (inactive) | IC50 [18]: 65.3 µM (inactive)

C[C@@H]1CN([C@H](C)CO)C(=O)Cc2cc(N(C)C)ccc2O[C@H]1CN(C)Cc1ccc(C(=O)Nc2ccccc2N)cc1
AC50 [19]: 3.46 µM (active)

C[C@@H]1CN([C@H](C)CO)C(=O)Cc2cc(NC(=O)C3CCCCC3)ccc2O[C@@H]1CN(C)Cc1ccc(Cl)c(Cl)c1
AC50 [19]: 2.15 µM (active)

C[C@H](CO)N1C[C@H](C)[C@H](CN(C)Cc2ccc(-c3ccccc3)cc2)Oc2ccc(NC(=O)Cc3cn(C)c4ccccc34)cc2C1=O
AC50 [19]: 15 µM (active)

O=C(COC(=O)c1ccc([N+](=O)[O-])o1)NC12CC3CC(CC(C3)C1)C2
IC50 [17]: 5.13 µM (active) | IC50 [18]: 6.85 µM (active)
